Values quoted from earlier work, collected in patent US20030216407A1, “Use of PDE5 inhibitors in the treatment of scarring” (Pfizer Inc., priority 2002, published 2003).

What was measured:
PDE6 against PDE5 = conditions: more potent against PDE6 than against PDE5
[1] = tested on: adult cardiac fibroblasts; conditions: substance on its own
[2] = tested on: normal rat kidney fibroblast collagen synthesis; conditions: in vitro

Compound	potency against PDE6 relative to PDE5 (PDE6 against PDE5)	regulating cardiac fibroblast proliferation [1]	collagen synthesis induced by CTGF [2]
CCCOc1ccccc1-c1nc2nn[nH]c2c(=O)[nH]1 [zaprinast]	five fold	no effect	–
atrial natriurectic peptide [ANP]	–	did not on its own regulate	–
Nc1nc2c(ncn2[C@@H]2O[C@@H]3COP(=O)(O)O[C@H]3[C@H]2O)c(=O)[nH]1 [cGMP]	–	–	no effect
